Our source for the IC50 and Selectivity values is US20240317723A1, “SUBSTITUTED AMINO AZA-HETEROARYL COMPOUNDS AS INHIBITORS OF THE HAEMATOPOIETIC PROGENITOR KINASE 1 (HPK1)” (priority 2021, published 2024).

The target of experiment [1] is T1, Recombinant (1-346) HPK1 (h) (Homo sapiens, UniProt Q92918).
T1 construct: Recombinant (1-346) HPK1 (h) is incubated with 8 mM MOPS pH 7.0
T1 sequence (Q92918 1-346): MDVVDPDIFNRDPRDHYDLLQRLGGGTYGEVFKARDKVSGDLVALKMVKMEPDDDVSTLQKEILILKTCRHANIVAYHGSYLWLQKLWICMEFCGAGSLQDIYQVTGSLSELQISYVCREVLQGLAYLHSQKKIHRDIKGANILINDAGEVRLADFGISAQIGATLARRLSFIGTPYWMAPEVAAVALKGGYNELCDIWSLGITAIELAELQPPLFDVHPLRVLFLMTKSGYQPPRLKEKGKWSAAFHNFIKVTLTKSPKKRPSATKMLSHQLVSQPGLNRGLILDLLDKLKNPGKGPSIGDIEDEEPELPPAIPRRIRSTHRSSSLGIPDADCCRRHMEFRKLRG
Description: HPK1 Human STE Kinase Enzymatic Radiometric Assay. The class given is biochemical. The settings on record: [gamma-33P]-ATP, myelin basic protein substrate, read-out: HPK1 IC50 nM Range*. On the procedure:
(a) HPK1 Human STE Kinase Enzymatic Radiometric Assay
A stock solution of 10 mM of test compound is prepared in DMSO. The compound plate was prepared by 3-fold and 9-point serial dilutions. Recombinant (1-346) HPK1 (h) is incubated with 8 mM MOPS pH 7.0, 0.2 mM EDTA, 0.33 mg/mL myelin basic protein, 10 mM MgAcetate and [gamma-33P]-ATP (specific activity and concentration as required). The reaction is initiated by the addition of the Mg/ATP mix. After incubation for 40 minutes at RT, the reaction is stopped by the addition of phosphoric acid to a concentration of 0.5%. 10 uL of the reaction is then spotted onto a P30 filtermat and washed four times for 4 minutes in 0.425% phosphoric acid and once in methanol prior to drying and scintillation counting. For more details of kinase assay protocols, see: Gao, Y. et. al.; Biochem J. 451 (2): 313-328, 2013.

A further experiment deals with Lck (h) (Homo sapiens, UniProt P06239). Briefly: Lck Human STE Kinase Enzymatic Radiometric Assay. It is filed as biochemical. The settings on record: for IC50: radiometric, [gamma-33P]-ATP, Cdc2 peptide substrate, read-out: Lck IC50, nM Range*; for Selectivity: selectivity for inhibition of HPK1 vs Lck. How it is done:
(b) Lck Human STE Kinase Enzymatic Radiometric Assay
Lck (h) is incubated with 50 mM Tris pH 7.5, 0.1 mM EGTA, 0.1 mM Na3VO4, 250 uM KVEKIGEGTYGVVYK (Cdc2 peptide), 10 mM MgAcetate and [gamma-33P]-ATP (specific activity and concentration as required). The reaction is initiated by the addition of the Mg/ATP mix. After incubation for 40 minutes at room temperature, the reaction is stopped by the addition of phosphoric acid to a concentration of 0.5%. 10 uL of the reaction is then spotted onto a P30 filtermat and washed four times for 4 minutes in 0.425% phosphoric acid and once in methanol prior to drying and scintillation counting. For more details on the kinase assay procedures see: Gao, Y. et. al.; Biochem J., 451 (2): 313-328, 2013.
In some embodiments the presence of substituents on monocyclic Cy^2 rings or when Cy^2 is a bicyclic ring (unsubstituted or substituted) provides compounds with improved selectivity for inhibition of HPK1 vs Lck (see, for example, Table 3 and Table 4).

The structures appear in SMILES notation.

Lck (h), sequence (P06239 whole entry): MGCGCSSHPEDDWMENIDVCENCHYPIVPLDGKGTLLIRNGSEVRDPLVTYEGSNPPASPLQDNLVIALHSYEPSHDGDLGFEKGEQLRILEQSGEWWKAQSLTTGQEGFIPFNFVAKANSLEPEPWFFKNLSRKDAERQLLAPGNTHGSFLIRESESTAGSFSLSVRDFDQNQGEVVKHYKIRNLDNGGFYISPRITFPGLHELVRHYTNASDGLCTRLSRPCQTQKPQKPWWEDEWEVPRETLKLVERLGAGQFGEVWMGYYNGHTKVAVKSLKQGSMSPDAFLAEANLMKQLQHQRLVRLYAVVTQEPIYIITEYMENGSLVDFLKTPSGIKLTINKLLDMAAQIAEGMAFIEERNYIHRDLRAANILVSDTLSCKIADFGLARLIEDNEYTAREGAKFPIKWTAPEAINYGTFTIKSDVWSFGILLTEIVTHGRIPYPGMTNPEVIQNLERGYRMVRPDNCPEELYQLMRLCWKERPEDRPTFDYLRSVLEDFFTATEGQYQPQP

Consider `Cc1[nH]c(=O)c2cc(F)c(-c3nc(-c4ccc(C5CCOCC5)c(CN(C)C)c4)cnc3N)cc2c1F` [II-6, 6-(3-amino-6-(3-((dimethylamino)methyl)-4-(tetrahydro-2H-pyran-4-yl)phenyl)pyrazin-2-yl)-4,7-difluoro-3-methylisoquinolin-1(2H)-one], for which the IC50 is 0.1 to 5 nM in experiment [1] and 21 to 200 nM at Lck (h).
Consider `CC(C)[C@@H]1CN(c2ccc(-c3cnc(N)c(-c4ccc5c(c4)CCNC5=O)n3)c(F)c2)CCO1` [Example I-13, (R)-6-(3-amino-6-(2-fluoro-4-(2-isopropylmorpholino)phenyl)pyrazin-2-yl)-3,4-dihydroisoquinolin-1(2H)-one], for which the IC50 in experiment [1] was in the range of 0.1 to 5 nM. On Lck (h), the half-maximal inhibitory concentration (IC50) was 21 to 200 nM and the Selectivity is on record as 2740.
As to `Nc1ncc(-c2ccc([C@@]34C[C@@H]3CN(CCF)C4)cc2)nc1-c1ccc2c(c1)CCNC2=O` [Example I-37, 6-(3-amino-6-(4-((1R,5S)-3-(2-fluoroethyl)-3-azabicyclo[3.1.0]hexan-1-yl)phenyl)pyrazin-2-yl)-3,4-dihydroisoquinolin-1(2H)-one], the IC50 in experiment [1] fell in the range of 0.1 to 5 nM; at Lck (h) it was 6 to 10 nM.
As to `CN1CCN(c2ccc(-c3cnc(N)c(-c4cc5c(cc4F)C(=O)NCC5)n3)cc2)CC1` [Example I-12, 6-(3-amino-6-(4-(4-methylpiperazin-1-yl)phenyl)pyrazin-2-yl)-7-fluoro-3,4-dihydroisoquinolin-1(2H)-one], the IC50 lay within 0.1 to 5 nM in experiment [1] and 11 to 20 nM on Lck (h).
With `CN1CCN(c2ccc(-c3cnc(N)c(-c4ccc5c(c4)CCNC5=O)n3)cc2F)CC1` [Example I-4, 6-(3-amino-6-(3-fluoro-4-(4-methylpiperazin-1-yl)phenyl)pyrazin-2-yl)-3,4-dihydroisoquinolin-1(2H)-one], the 50% inhibitory concentration (IC50) in experiment [1] lay in the range of 0.1 to 5 nM; at Lck (h), 6 to 10 nM.
With `CN(C)C1CCN(c2ccc(-c3cnc(N)c(-c4ccc5c(c4)CCNC5=O)n3)c(F)c2F)C1` (stereo not shown) [Example I-21, 6-(3-amino-6-(4-(3-(dimethylamino)pyrrolidin-1-yl)-2,3-difluorophenyl)pyrazin-2-yl)-3,4-dihydroisoquinolin-1(2H)-one], the IC50 lay within 0.1 to 5 nM in experiment [1] and 11 to 20 nM at Lck (h).
In the same order, the values of `CN1CCN(c2ccc(-c3cnc(N)c(-c4ccc5c(c4)CCCNC5=O)n3)cc2)CC1` [Example I-50, 7-(3-amino-6-(4-(4-methylpiperazin-1-yl)phenyl)pyrazin-2-yl)-2,3,4,5-tetrahydro-1H-benzo[c]azepin-1-one] are 0.1 to 5 nM and 6 to 10 nM.
Regarding `CC(C)[C@H]1CN(c2ccc(-c3cnc(N)c(-c4ccc5c(c4)CCNC5=O)n3)cc2)CCO1` [Example I-8, (S)-6-(3-amino-6-(4-(2-isopropylmorpholino)phenyl)pyrazin-2-yl)-3,4-dihydroisoquinolin-1(2H)-one], the IC50 in experiment [1] was in the range of 0.1 to 5 nM. At Lck (h), the concentration for half-maximal inhibition (IC50) fell in the range of 11 to 20 nM and the Selectivity was determined as 170.
Turning to `C[C@@H]1CCCCN1c1ccc(-c2cnc(N)c(-c3ccc4c(c3)CCNC4=O)n2)c(F)c1` [Example I-17, (R)-6-(3-amino-6-(2-fluoro-4-(2-methylpiperidin-1-yl)phenyl)pyrazin-2-yl)-3,4-dihydroisoquinolin-1(2H)-one], the IC50 in experiment [1] lay within 0.1 to 5 nM; at Lck (h) it was 21 to 200 nM.
In the same order, the values of `CC(C)[C@@H]1CN(c2ccc(-c3cnc(N)c(-c4cc5c(cc4F)C(=O)NCC5)n3)cc2)CCO1` [Example I-27, (R)-6-(3-amino-6-(4-(2-isopropylmorpholino)phenyl)pyrazin-2-yl)-7-fluoro-3,4-dihydroisoquinolin-1(2H)-one] are 0.1 to 5 nM and 6 to 10 nM.
In the same order, the values of `Nc1ncc(-c2ccc(N3CCN(CC(F)(F)F)CC3)cc2)nc1-c1ccc2c(c1)CCNC2=O` [Example I-35, 6-(3-amino-6-(4-(4-(2,2,2-trifluoroethyl)piperazin-1-yl)phenyl)pyrazin-2-yl)-3,4-dihydroisoquinolin-1(2H)-one] are 0.1 to 5 nM and 11 to 20 nM.
In the same order, the values of `CC(C)[C@@H]1CN(c2ccc(-c3cnc(N)c(-c4cc5c(cc4F)C(=O)NCC5)n3)c(F)c2F)CCO1` [Example I-31, (R)-6-(3-amino-6-(2,3-difluoro-4-(2-isopropylmorpholino)phenyl)pyrazin-2-yl)-7-fluoro-3,4-dihydroisoquinolin-1(2H)-one] are 0.1 to 5 nM and 21 to 200 nM.
Consider `Nc1ncc(-c2ccc(N3CCC(O)CC3)cc2)nc1-c1ccc2c(c1)CCNC2=O` [Example I-6, 6-(3-amino-6-(4-(4-hydroxypiperidin-1-yl)phenyl)pyrazin-2-yl)-3,4-dihydroisoquinolin-1(2H)-one], for which the concentration for half-maximal inhibition (IC50) in experiment [1] fell in the range of 0.1 to 5 nM; on Lck (h), 11 to 20 nM.
For `Nc1ncc(-c2ccc(C3CCN(CC(F)(F)F)CC3)cc2)nc1-c1ccc2c(c1)CCNC2=O` [Example I-36, 6-(3-amino-6-(4-(1-(2,2,2-trifluoroethyl)piperidin-4-yl)phenyl)pyrazin-2-yl)-3,4-dihydroisoquinolin-1(2H)-one], the IC50 in experiment [1] is 0.1 to 5 nM; at Lck (h) it was 11 to 20 nM.
In the same order, the values of `CC(C)[C@H]1CN(c2ccc(-c3cnc(N)c(-c4cc5c(cc4F)C(=O)NCC5)n3)c(F)c2)CCO1` [Example I-30, (S)-6-(3-amino-6-(2-fluoro-4-(2-isopropylmorpholino)phenyl)pyrazin-2-yl)-7-fluoro-3,4-dihydroisoquinolin-1(2H)-one] are 0.1 to 5 nM and 21 to 200 nM.
On to `CC(C)N1CCN(c2ccc(-c3cnc(N)c(-c4cc5c(cc4F)C(=O)NCC5)n3)cc2)CC1` [Example I-44, 6-(3-amino-6-(4-(4-isopropylpiperazin-1-yl)phenyl)pyrazin-2-yl)-7-fluoro-3,4-dihydroisoquinolin-1(2H)-one], for which the half-maximal inhibitory concentration (IC50) in experiment [1] lay in the range of 0.1 to 5 nM; on Lck (h) it was 11 to 20 nM.
`CC(=O)N1CCN(c2ccc(-c3cnc(N)c(-c4ccc5c(c4)CCNC5=O)n3)cc2)CC1` [Example I-19, 6-(6-(4-(4-acetylpiperazin-1-yl)phenyl)-3-aminopyrazin-2-yl)-3,4-dihydroisoquinolin-1(2H)-one]: the 50% inhibitory concentration (IC50) in experiment [1] fell in the range of 0.1 to 5 nM; on Lck (h), 11 to 20 nM.
Consider `CC(C)[C@H]1CN(c2ccc(-c3cnc(N)c(-c4ccc5c(c4)CCNC5=O)n3)cc2)CCN1C` [Example I-40, (S)-6-(3-amino-6-(4-(3-isopropyl-4-methylpiperazin-1-yl)phenyl)pyrazin-2-yl)-3,4-dihydroisoquinolin-1(2H)-one], for which the half-inhibitory concentration (IC50) is 0.1 to 5 nM in experiment [1] and 6 to 10 nM at Lck (h).
In the same order, the values of `CC(C)[C@@H]1CN(c2ccc(-c3cnc(N)c(-c4cc5c(cc4F)C(=O)NCC5)n3)c(F)c2)CCO1` [Example I-29, (R)-6-(3-amino-6-(2-fluoro-4-(2-isopropylmorpholino)phenyl)pyrazin-2-yl)-7-fluoro-3,4-dihydroisoquinolin-1(2H)-one] are 0.1 to 5 nM and 21 to 200 nM.
In the case of `CN1CCN(c2ccc(-c3cnc(N)c(-c4ccc5c(c4)CCNC5=O)n3)cc2)C=N1` [Example I-33, 6-(3-amino-6-(4-(1-methyl-5,6-dihydro-1,2,4-triazin-4(1H)-yl)phenyl)pyrazin-2-yl)-3,4-dihydroisoquinolin-1(2H)-one], the IC50 in experiment [1] was 0.1 to 5 nM; on Lck (h) it was 11 to 20 nM.
As for `CC(C)N1C[C@H]2C[C@@]2(c2ccc(-c3cnc(N)c(-c4cc5c(cc4F)C(=O)NCC5)n3)cc2)C1` [Example I-46, 6-(3-amino-6-(4-((1R,5S)-3-isopropyl-3-azabicyclo[3.1.0]hexan-1-yl)phenyl)pyrazin-2-yl)-7-fluoro-3,4-dihydroisoquinolin-1(2H)-one], the IC50 in experiment [1] is 0.1 to 5 nM; at Lck (h) it was 11 to 20 nM.
In the same order, the values of `C[C@@H]1COCCN1c1ccc(-c2cnc(N)c(-c3ccc4c(c3)CCNC4=O)n2)c(F)c1` [Example I-22, (R)-6-(3-amino-6-(2-fluoro-4-(3-methylmorpholino)phenyl)pyrazin-2-yl)-3,4-dihydroisoquinolin-1(2H)-one] are 6 to 10 nM and 21 to 200 nM.

As a reminder, the IC50 is the concentration at which inhibition is half-maximal.
